Patent US8158828B2, “Nuclear receptor binding agents” (priority 2005, dated 2012)
Entries after “also recorded” stand apart in the source; their conditions may differ.

How the values were obtained:
[1] = test system: pS2 (gene encoding the trefoil peptides) in MCF-7 cells; experiment: pS2 gene expression in MCF-7 cells (realtime RT-PCR); assay type: cell-based
Protocol: MCF-7 cells were plated at 500,000 cells per well of a 6 well plate. RNA was isolated and the message levels of pS2 (gene encoding the trefoil peptides) measured and normalized to 18S ribosomal RNA by realtime polymerase chain reaction (rtPCR).
FIG. 11: Agonistic activity of the indicated compounds in MCF-7 cells. MCF-7 cells were plated at 500,000 cells per well of a 6 well plate. RNA was isolated and the message levels of pS2 gene measured and normalized to 18S ribosomal RNA by realtime rtPCR.
MCF-7 cells were plated at 500,000 cells per well of a 6 well plate. The cells were serum starved for 3 days and then were treated as above for 16 hrs. RNA was isolated and gene expression levels assessed by realtime RT-PCR, following normalization to 18S ribosomal RNA.

AR = molecular target: T1, AR (Rattus norvegicus, UniProt P15207); experiment: AR transactivation, ARE-LUC in COS cells; assay type: cell-based
T1 construct: expressed in transfected cells; host or cells: COS cells
T1 sequence (P15207 1-902): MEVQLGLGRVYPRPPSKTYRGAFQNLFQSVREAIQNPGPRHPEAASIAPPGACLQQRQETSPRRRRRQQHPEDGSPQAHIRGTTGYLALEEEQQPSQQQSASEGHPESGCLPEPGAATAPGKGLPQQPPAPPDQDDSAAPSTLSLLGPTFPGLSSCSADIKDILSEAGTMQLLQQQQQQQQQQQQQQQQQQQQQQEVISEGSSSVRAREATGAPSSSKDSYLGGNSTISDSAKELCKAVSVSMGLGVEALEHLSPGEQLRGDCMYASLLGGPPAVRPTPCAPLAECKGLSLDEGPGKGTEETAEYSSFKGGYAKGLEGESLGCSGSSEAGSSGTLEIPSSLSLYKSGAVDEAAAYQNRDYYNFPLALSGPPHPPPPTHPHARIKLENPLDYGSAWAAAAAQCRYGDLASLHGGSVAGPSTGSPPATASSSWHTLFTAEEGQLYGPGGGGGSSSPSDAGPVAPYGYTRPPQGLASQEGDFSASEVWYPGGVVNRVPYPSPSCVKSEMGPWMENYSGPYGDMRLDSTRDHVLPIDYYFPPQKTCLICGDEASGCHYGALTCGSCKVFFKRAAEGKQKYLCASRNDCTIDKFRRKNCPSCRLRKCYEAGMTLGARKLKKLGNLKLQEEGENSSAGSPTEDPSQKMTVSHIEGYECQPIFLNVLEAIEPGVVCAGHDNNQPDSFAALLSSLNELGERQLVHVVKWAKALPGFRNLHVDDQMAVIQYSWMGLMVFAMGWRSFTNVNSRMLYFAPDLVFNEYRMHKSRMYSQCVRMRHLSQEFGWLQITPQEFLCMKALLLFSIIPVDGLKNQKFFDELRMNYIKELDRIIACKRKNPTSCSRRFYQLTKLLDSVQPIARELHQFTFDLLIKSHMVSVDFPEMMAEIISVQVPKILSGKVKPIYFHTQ
Protocol: FIG. 3: Effect of the indicated compounds on AR transactivation. COS cells plated in DME without phenol red+10% csFBS at 90,000 cells per well of a 24 well plate were transfected with 0.25 μg ARE-LUC, 0.02 μg CMV-LUC (Renilla) and 12.5 ng of AR by lipofectamine. Twenty four hours after transfection, the cells were treated as indicated in the figure, harvested 48 hrs after transfection and were assayed for firefly and renilla luciferase.
Also 25 ng of ER-α (FIGS. 1, 5, and 9), 50 ng of ER-β (FIGS. 2, 6 and 10) or 12.5 ng of AR (FIG. 3) were introduced by lipofectamine. All the receptors were cloned from rat tissue into the PCR3.1 vector backbone. […] Cells were harvested 48 hrs after transfection, and assayed for firefly and Renilla luciferase activity.

[2] = test system: TRAP positive multinucleated osteoclasts; experiment: TRAP positive multinucleated osteoclasts from bone marrow cells; assay type: cell-based, rat; details: RANKL and GMCSF, 12 days
Protocol: FIG. 7: Effect of the indicated compounds on TRAP positive multinucleated osteoclasts. Bone marrow cells from rat femur was cultured in Alpha MEM+10% csFBS without phenol red in the presence or absence of 30 ng/ml RANKL and 10 ng/ml GMCSF. The cells were treated for 12 days and were stained for tartarate resistant acid phosphatase activity (TRAP) and multinucleated osteoclasts were counted.
Bone marrow cells isolated from rat femur were cultured in Alpha MEM without phenol red+10% sterile FBS without phenol red in the presence or absence of […] RANKL and 10 ng/ml GMCSF. The cells were treated for 12 days were stained for tartarate resistant acid phosphatase activity (TRAP) positive multinucleated osteoclasts and were counted.

ER-β = molecular target: T2, ER-β (Rattus norvegicus, UniProt Q62986); experiment: ER-β transactivation, ERE-LUC in COS or 293 cells; assay type: cell-based; design: % estardiol activity, ER-β: dose or concentration left out as unconfirmed; details: for ER-β LUC expression, compound alone / inhibition of E2-stimulated LUC expression, ER-β: COS or 293 cells; for inhibition of E2-stimulated LUC expression, ER-β: with E2
T2 construct: expressed in transfected cells; host or cells: COS or 293 cells
T2 sequence (Q62986 whole entry): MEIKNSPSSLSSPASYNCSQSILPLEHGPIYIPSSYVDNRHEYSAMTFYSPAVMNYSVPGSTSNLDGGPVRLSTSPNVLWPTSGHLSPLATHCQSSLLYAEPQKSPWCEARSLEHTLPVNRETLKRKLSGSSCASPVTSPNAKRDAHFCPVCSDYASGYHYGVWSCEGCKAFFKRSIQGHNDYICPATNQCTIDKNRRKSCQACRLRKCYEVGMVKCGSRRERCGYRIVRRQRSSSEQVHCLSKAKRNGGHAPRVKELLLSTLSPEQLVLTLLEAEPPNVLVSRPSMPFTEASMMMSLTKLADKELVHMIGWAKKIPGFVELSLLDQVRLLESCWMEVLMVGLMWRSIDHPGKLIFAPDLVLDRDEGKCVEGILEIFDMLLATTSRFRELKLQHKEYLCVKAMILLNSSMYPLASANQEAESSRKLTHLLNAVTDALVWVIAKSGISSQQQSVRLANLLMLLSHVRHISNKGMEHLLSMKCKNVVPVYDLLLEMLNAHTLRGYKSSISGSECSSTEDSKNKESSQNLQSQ

SMILES | pS2 expression ([1]; 16 hrs) | inhibition of estrogen-induced upregulation of pS2 gene expression ([1]; with estrogen) | AR LUC expression, compound alone (AR) | inhibition of DHT-induced AR activation (AR; with DHT) | osteoclast differentiation / osteoclast activity [2] | ER-β LUC expression, compound alone (ER-β) | inhibition of E2-stimulated LUC expression, ER-β (ER-β) | osteoclast differentiation / osteoclast activity ([2]; hydrochloride) | % estardiol activity, ER-β (ER-β) [%]
O=C(c1ccccc1)N(c1ccc(O)cc1)c1ccc(OCCN2CCCCC2)cc1 [Compound 4a, N-(4-hydroxyphenyl)-N-[4-(2-piperidin-1-ylethoxy)-phenyl]-benzamide] | only minimally did so; also recorded: partial agonist of ER action in MCF-7 cells | inhibited estrogen-induced upregulation of pS2 gene expression | no effect on LUC expression | nor did it inhibit DHT-induced AR activation | minimally but dose-dependently suppressed the osteoclast differentiation | neither 4a nor 4h stimulated LUC expression | inhibited E2-stimulated LUC expression | – | –
Cl.O=C(c1ccc(F)cc1)N(c1ccc(O)cc1)c1ccc(OCCN2CCCCC2)cc1 [Compound 4h, N-(4-hydroxyphenyl)-N-[4-(2-piperidin-1-ylethoxy)-phenyl]-4-fluroro-benzamide hydrochloride] | – | – | – | – | – | neither 4a nor 4h stimulated LUC expression | inhibited E2-stimulated LUC expression | minimally but dose-dependently suppressed the osteoclast differentiation; also recorded: highly suppressive of osteoclast activity | 29.1
